# Experimental data as given in patent US20120015352A1, “METHOD OF DETERMINING SENSITIVITY OF HUMAN OR NON-HUMAN ANIMAL CELLS TO AN IAP ANTAGONIST” (Otto-von-Guericke-Universitat Magdeburg, priority 2009, published 2012).
# Residues, ends and D or L forms follow the SMILES beside them. *: point of attachment. Cbz = O=C(OCc1ccccc1)*; CH2F = FC*
# T1: TRAF2 (human, UniProt Q12933 2-501)
# T1 construct: Endogenous protein
# T1 sequence (looked up): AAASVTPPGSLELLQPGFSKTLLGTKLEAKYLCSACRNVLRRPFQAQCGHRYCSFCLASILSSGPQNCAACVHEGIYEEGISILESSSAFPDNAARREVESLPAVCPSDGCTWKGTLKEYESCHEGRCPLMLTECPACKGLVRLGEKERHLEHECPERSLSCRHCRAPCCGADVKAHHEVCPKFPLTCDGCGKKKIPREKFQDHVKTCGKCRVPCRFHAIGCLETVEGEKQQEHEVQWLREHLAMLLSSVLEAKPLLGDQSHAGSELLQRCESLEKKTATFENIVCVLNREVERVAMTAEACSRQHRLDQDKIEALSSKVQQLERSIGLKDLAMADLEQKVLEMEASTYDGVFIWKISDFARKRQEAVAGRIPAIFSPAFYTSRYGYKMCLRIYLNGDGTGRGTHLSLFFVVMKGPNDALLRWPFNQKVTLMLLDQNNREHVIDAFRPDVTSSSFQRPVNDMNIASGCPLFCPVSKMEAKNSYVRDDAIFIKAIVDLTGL
# T2: RIP1 (human, UniProt Q13546 1-671)
# T2 construct: Endogenous protein; also called kinase RIP1; full length RIP1
# T2 sequence (looked up): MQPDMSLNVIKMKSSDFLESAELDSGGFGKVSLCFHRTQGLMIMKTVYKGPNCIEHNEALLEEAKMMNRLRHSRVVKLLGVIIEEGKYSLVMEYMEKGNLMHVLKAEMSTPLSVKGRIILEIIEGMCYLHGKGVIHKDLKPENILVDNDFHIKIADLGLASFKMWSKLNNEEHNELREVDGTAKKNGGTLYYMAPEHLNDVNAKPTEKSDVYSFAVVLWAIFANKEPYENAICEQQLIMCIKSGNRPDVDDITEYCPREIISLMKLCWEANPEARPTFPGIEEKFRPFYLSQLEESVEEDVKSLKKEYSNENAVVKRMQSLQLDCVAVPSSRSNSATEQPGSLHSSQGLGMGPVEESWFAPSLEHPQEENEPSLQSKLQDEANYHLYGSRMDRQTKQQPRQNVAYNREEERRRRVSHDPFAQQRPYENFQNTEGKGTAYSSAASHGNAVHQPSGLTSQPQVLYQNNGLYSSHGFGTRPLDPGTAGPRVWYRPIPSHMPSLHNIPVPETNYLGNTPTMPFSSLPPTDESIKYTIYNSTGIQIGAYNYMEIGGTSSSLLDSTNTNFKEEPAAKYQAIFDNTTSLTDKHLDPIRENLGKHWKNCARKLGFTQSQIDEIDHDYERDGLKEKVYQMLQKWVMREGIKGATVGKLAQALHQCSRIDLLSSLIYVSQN
# Legend:
# HaCaT cells [1] = experiment: Cytotoxicity assay (crystal violet); format: cell-based, human
# Method: (§1) Cytotoxicity assay. Crystal violet staining of attached, living cells was performed 20-24 h after stimulation with the indicated concentrations of TRAIL or CD95L in 96 well plates in triplicate wells per condition as described^37. The optical density (OD) of control cultures was normalized to 100% compared to stimulated cells. For statistical analysis the standard error of mean (SEM) was determined for 3-7 independent experiments of each cell line and stimulatory condition.
# A5-RT3 cells = experiment: Cytotoxicity assay (crystal violet); format: cell-based, human
# Method: as §1
# HaCaT cells [2] = experiment: Immunofluorescence microscopy (Hoechst 33342, nuclear morphology); format: cell-based, human; conditions: zVAD-fmk 10 μM; for protection from cell death: CD95L 24 hrs
# Method: Immunofluorescence microscopy. For detection of nuclear morphology, 5×10^4 cells of the respective cells were seeded per well in a 12-well plate. Subsequently, cells were incubated with Hoechst 33342 (5 μg/ml) for 15 min at 37° C. immediately followed by phase contrast or fluorescence microscopy using a suitable instrument (Leica). Digital images were identically processed using appropriate software.
# TRAF2 [3] = molecular target: T1, TRAF2; experiment: CD95L-Fc ligand affinity precipitation of the CD95 DISC, Western blot
# Method: (§2) Ligand affinity precipitation of Receptor complexes. For the precipitation of the CD95L DISC, 5×10⁶ cells were used for each condition. Cells were washed once with medium at 37° C. and subsequently preincubated for 1 h with 10 μM zVAD-fmk and, as indicated with 100 nM IAP inhibitor at 37° C. Subsequently cells were treated with 250 units/ml CD95L-Fc for 2 h or, for the unstimulated control, in the absence of ligands. Receptor complex formation was stopped by washing the monolayer four times with ice-cold PBS. Cells were lysed on ice by addition of 2 ml lysis buffer (30 mM Tris-HCl pH 7.5 at 21° C., 120 mM NaCl, 10% Glycerol, 1% Triton X-100, Complete® protease inhibitor cocktail (Roche Molecular Diagnostics, Mannheim, Germany)). After 30 min lysis on ice, the lysates were centrifuged two times at 20,000×g for 5 min and 30 min, respectively, to remove cellular debris. A minor fraction of these clear lysates were used to control for the input of the respective proteins. For the precipitation of the CD95 receptor and stimulation-dependent recruited proteins, Apo-1 IgG3 antibodies (kindly provided by P. H. Krammer) were added to the lysates prepared from non-stimulated as well as stimulated cells to precipitate the receptor-interacting proteins. […]
# RIP1 = molecular target: T2, RIP1; experiment: CD95L-Fc ligand affinity precipitation of the DISC from control-infected HaCaT cells, Western blot
# Method: as §2
# TRAF2 [4] = molecular target: T1, TRAF2; experiment: caspase-8 co-immunoprecipitation (complex II), Western blot
# A375 melanoma cells = experiment: Fc-CD95L unit determination (killing of cells); format: cell-based; conditions: one unit = 1:500 dilution of stock Fc-CD95L supernatant
# Method: Materials. […] B-actin Abs were from a suitable source. His-FLAG-TRAIL (HF-TRAIL) was produced as recently described^17. For expression of Fc-CD95L we used a construct recently published^57 (kindly provided by P. Schneider, Epalinges, Switzerland). One unit of Fc-CD95L was determined as a 1:500 dilution of the stock Fc-CD95L supernatant, and one unit/ml of Fc-CD95L supernatant was sufficient to kill 50 percent (LD50) of A375 melanoma cells, as recently described^58. […] Horseradish peroxidase (HRP)-conjugated goat anti-rabbit, goat anti rat IgG, goat anti-mouse IgG Abs and HRP-conjugated goat anti-mouse IgG1, IgG2a, IgG2b, and IgG1κ were obtained from Southern Biotechnology Associates (Birmingham, Ala.). TRAIL-R1 (HS 101), TRAIL-R2 (HS 201), mAbs for FACScan analysis of surface receptor expression were used as previously described^26 and are available from Alexis (San Diego, Calif.). CD95 Abs (Apo-1 IgG1 and IgG3a) were kindly provided by P. H. Krammer (German Cancer Research Center, Heidelberg, Germany). Cy5-conjugated Annexin V was purchased from Pharmingen (Hamburg, Germany). The IAP inhibitor (compound A) was provided by Tetralogic Pharmaceuticals (Malvern, Pa., USA). Compound A is exemplified in US20060194741, which is incorporated in its entirety by reference herein, and Compound A has the following structure: […]
molecule,measurement,setting,value
CN1C(=O)C(Cc2c[nH]c3ccccc23)NC1=S (stereo not drawn) [necrostatin-1],protection from CD95L-mediated cell death,"HaCaT cells [1]; cFLIPS-expressing HaCaT, IAP inhibitor + CD95L, necrostatin-1 50 μM, 24 hrs",fully protected
same,protection from TRAIL- or CD95L-mediated cell death,"HaCaT cells [1]; necrostatin-1 50 μM added to zVAD-fmk-protected cells, IAP inhibitor 100 nM",fully recovered viability
same,protection from death ligand-mediated cell death,"HaCaT cells [1]; necrostatin-1 50 μM alone, no caspase inhibitor, IAP inhibitor 100 nM",ineffective
same,protection from death ligand-mediated cell death,"A5-RT3 cells; cFLIP-shRNA A5-RT3 cells, necrostatin-1 50 μM, IAP inhibitor, CD95L",ineffective
COC(=O)C[C@H](NC(=O)[C@H](C)NC(=O)[C@@H](NC(=O)OCc1ccccc1)C(C)C)C(=O)CF [zVAD-fmk] (Cbz-Val-Ala-Asp(OMe)-CH2F),protection from death receptor-mediated cell death,"HaCaT cells [1]; cFLIPS-expressing HaCaT, IAP inhibitor + CD95L, zVAD-fmk 10 μM",not protected
same,block of TRAIL- or CD95L-mediated cell death,"HaCaT cells [1]; zVAD-fmk 10 μM, in the presence of IAP inhibitor 100 nM",only partially blocked
same,block of TRAIL- or CD95L-mediated cell death,"HaCaT cells [1]; zVAD-fmk 10 μM, without IAP inhibitor, 24 hrs",fully blocked cell death
same,protection from death ligand-mediated cell death,"A5-RT3 cells; cFLIP-downregulated cells insensitive to IAP inhibitor, zVAD-fmk",fully protected
same,protection of cellular morphology or DNA fragmentation,"HaCaT cells [2]; CD95L 4 hrs, in the presence of IAP inhibitor",fully protected
same,protection from cell death,HaCaT cells [2]; in the presence of IAPs (no IAP inhibitor),complete protection
same,protection from cell death,HaCaT cells [2]; with IAP inhibitor,did not protect
"CD95 (receptor, human, UniProt P25445 26-335, looked up, whole, on cells; recruitment to it may be indirect (through FADD); also called CD95 DISC; CD95 receptor) QVTDINSKGLELRKTVTTVETQNLEGLHHDGQFCHKPCPPGERKARDCTVNGDEPDCVPCQEGKEYTDKAHFSSKCRRCRLCDEGHGLEVEINCTRTQNTKCRCKPNFFCNSTVCEHCDPCTKCEHGIIKECTLTSNTKCKEEGSRSNLGWLCLLLLPIPLIVWVKRKEVQKTCRKHRKENQGSHESPTLNPETVAINLSDVDLSKYITTIAGVMTLSQVKGFVRKNGVNEAKIDEIKNDNVQDTAEQKVQLLRNWHQLHGKKEAYDTLIKDLKKANLCTLAEKIQTIILKDITSDSENSNFRNEIQSLV",binding result,TRAF2 [3],no binding
same,binding result,RIP1,binds
"caspase-8 (enzyme, human, UniProt Q14790 1-479, looked up, Endogenous protein in cell lysates; also called caspase-8 p43/41 (cleaved form seen in the DISC)) MDFSRNLYDIGEQLDSEDLASLKFLSLDYIPQRKQEPIKDALMLFQRLQEKRMLEESNLSFLKELLFRINRLDLLITYLNTRKEEMERELQTPGRAQISAYRVMLYQISEEVSRSELRSFKFLLQEEISKCKLDDDMNLLDIFIEMEKRVILGEGKLDILKRVCAQINKSLLKIINDYEEFSKERSSSLEGSPDEFSNGEELCGVMTISDSPREQDSESQTLDKVYQMKSKPRGYCLIINNHNFAKAREKVPKLHSIRDRNGTHLDAGALTTTFEELHFEIKPHDDCTVEQIYEILKIYQLMDHSNMDCFICCILSHGDKGIIYGTDGQEAPIYELTSQFTGLKCPSLAGKPKVFFIQACQGDNYQKGIPVETDSEEQPYLEMDLSSPQTRYIPDEADFLLGMATVNNCVSYRNPAEGTWYIQSLCQSLRERCPRGDDILTILTEVNYEVSNKDDKKNMGKQMPQPTFTLRKKLVFPSD",binding result,TRAF2 [4],no binding
"Fc-CD95L: Fc-CD95L supernatant expressed from a published construct; death ligand (protein, left off: a dimerising Fc or GST, Fc-CD95L supernatant expressed from a published construct; death ligand) EKKELRKVAHLTGKSNSRSMPLEWEDTYGIVLLSGVKYKKGGLVINETGLYFVYSKVYFRGQSCNNLPLSHKVYMRNSKYPQDLVMMEGKMMSYCTTGQMWARSSYLGAVFNLTSADHLYVNVSELSLVNFEESQTFFGLYKL",LD50 (kill 50 percent of cells),A375 melanoma cells,one
